Measured values taken from paper PMC11541501, “Development of a Candidate ^11C‑Labeled Selective Phosphodiesterase 1 Radioligand for Positron Emission Tomography” (ACS Omega, 2024).
Like-named read-outs stand apart in the source and are kept apart here. One block for each molecule: values may come before it.

Key:
PDE1 [1] = settings: cited from earlier work; for IC50: introduction, literature value
5-HT6 = biological target: T1, 5-HT6 (Homo sapiens, UniProt P50406); experiment: Off-target binding, 5-HT6 (NIMH PDSP)
T1 construct: NIMH Psychoactive Drug Screening Program (PDSP)
T1 sequence (P50406 whole entry): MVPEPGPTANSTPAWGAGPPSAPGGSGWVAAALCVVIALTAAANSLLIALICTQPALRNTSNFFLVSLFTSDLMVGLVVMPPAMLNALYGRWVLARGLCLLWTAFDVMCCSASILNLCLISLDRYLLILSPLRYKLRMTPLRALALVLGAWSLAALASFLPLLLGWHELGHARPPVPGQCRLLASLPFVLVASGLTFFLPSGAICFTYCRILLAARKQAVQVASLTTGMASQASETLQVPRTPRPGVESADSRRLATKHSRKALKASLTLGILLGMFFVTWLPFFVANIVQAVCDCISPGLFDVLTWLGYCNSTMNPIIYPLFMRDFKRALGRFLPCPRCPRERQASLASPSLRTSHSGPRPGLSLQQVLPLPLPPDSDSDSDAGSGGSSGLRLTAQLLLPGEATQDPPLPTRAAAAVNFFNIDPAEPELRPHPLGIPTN
Excerpt: (§1) Furthermore, we investigated the off-target binding of PF-04822163 in vitro against 65 major CNS targets, including ion channels, transporters, and GPCR enzymes (Figure S2 in the Supporting Information, supported by the NIMH Psychoactive Drug Screening Program (PDSP)).
(§2) % Inhibition of Target Activity
(§3) Figure S2. Off-target pharmacological evaluation of compound PF-04822163 against major CNS targets, including common GPCRs, enzymes, ion channels, and transporters: initial screening at a concentration of 10 μM (supported by the NIMH PDSP). All data are […]
(§4) Figure S3. The time-activity-curves (0-60 min) of PET studies with [11C]PF-04822163 in rat brains under baseline and blocking conditions. All data were referred to as mean ± SEM,

5-HT2B = biological target: T2, 5-HT2B (Homo sapiens, UniProt P41595); experiment: Off-target binding, 5-HT2B (NIMH PDSP)
T2 construct: NIMH Psychoactive Drug Screening Program (PDSP)
T2 sequence (P41595 whole entry): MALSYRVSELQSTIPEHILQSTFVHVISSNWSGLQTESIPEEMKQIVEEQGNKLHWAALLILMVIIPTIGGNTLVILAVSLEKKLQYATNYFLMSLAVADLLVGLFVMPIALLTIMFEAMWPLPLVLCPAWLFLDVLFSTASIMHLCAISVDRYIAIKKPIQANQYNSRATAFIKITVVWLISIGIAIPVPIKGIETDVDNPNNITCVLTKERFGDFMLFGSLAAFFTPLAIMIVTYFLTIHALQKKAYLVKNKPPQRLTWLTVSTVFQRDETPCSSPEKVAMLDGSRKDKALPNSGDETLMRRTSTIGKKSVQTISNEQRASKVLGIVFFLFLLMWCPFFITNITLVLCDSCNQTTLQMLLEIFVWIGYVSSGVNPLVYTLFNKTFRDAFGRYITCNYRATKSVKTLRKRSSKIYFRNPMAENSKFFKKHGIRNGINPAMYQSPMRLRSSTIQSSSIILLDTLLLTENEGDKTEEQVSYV
Excerpt: as §1, §2, §3, §4

PDE1 [2] = experiment: Dynamic PET imaging in rat brains; format: in vivo, SD rats
Experimental: Encouraged by the results of in vitro evaluation by autoradiography studies with the ligand [^11C]-PF-04822163, dynamic PET imaging studies were conducted with [^11C]-PF-04822163 on SD rats. […] Additionally, an evident washout was observed after initial high uptakes in all brain regions. To assess the in vivo binding specificity of [^11C]-PF-04822163 to PDE1, we carried out blocking studies with the pretreatment of unlabeled PF-04822163 (1 mg/kg, 10 min before the administration of [^11C]-PF-04822163). […] These findings indicate that further optimization of the pharmacological and ADME properties is warranted to obtain a suitable probe for in vivo imaging of PDE1.
4 PET studies of [^11C]-PF-04822163 in rat brains. […]
PET imaging was conducted as previously reported. , An Inveon PET scanner (Siemens) was used for dynamic PET imaging studies, [^11C]-PF-04822163 (ca. 17.5 MBq/1.5 mL) was intravenously injected via the tail vein via a preinstalled catheter, and dynamic PET images were acquired in a 3D mode for a period of 60 min. […] The dynamic PET images were reconstructed using ASIPro VW software, and volumes of interest were calculated.

PDE1B [3] = biological target: T3, PDE1B (Homo sapiens, UniProt Q01064); settings: introduction, literature value; ref Humphrey et al., 2014; cited from earlier work
T3 sequence (Q01064 whole entry, species assumed): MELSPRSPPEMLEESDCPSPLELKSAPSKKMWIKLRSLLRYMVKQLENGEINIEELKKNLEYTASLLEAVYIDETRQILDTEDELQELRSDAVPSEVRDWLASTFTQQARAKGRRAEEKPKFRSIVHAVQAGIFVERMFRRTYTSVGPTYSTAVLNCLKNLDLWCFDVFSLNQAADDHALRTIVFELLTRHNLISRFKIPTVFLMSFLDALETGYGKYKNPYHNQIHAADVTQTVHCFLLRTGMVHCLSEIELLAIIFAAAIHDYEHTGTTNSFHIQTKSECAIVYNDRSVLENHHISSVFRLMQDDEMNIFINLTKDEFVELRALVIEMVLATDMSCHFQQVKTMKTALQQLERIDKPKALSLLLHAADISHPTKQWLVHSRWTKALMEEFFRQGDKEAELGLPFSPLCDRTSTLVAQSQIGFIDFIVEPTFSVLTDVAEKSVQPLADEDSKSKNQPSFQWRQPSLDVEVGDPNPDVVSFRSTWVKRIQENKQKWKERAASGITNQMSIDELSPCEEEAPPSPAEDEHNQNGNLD

PDE1B [4] = experiment: In vitro autoradiography with [11C]PF-04822163 on rat brain sections, blocking; format: binding, Sprague–Dawley (SD) rat; settings: blocker 10 μM, [11C]PF-04822163 autoradiography
Experimental: With the ligand [^11C]-PF-04822163 in hand, in vitro autoradiography studies were conducted on Sprague–Dawley (SD) rat brain sections to validate its binding specificity toward PDE1. […] In the autoradiography studies on the coronal brain sections, high radioactivity levels were found in the caudate putamen, nucleus accumbens, and olfactory tubercle (Figure a,c).
3 In vitro autoradiography studies of [^11C]-PF-04822163 on rat brain sections. (a) Representative images of autoradiography studies with [^11C]-PF-04822163 under baseline and blocking conditions (PF-04822163 or PF-04827736, 10 μM), (b) quantification of autoradiography studies of [^11C]-PF-04822163 on sagittal rat brain sections, and (c) quantification of autoradiography studies of [^11C]-PF-04822163 on coronal rat brain sections. All data are means ± SD, n ≥ 8. Statistical analysis was conducted with Student’s two-tailed t tests, and asterisks indicated the statistical significance as follows: *p < 0.05, **p ≤ 0.01, and ***p ≤ 0.001.
Autoradiography studies were performed according to previous reports. , In brief, the rat brain sections (20 μm) were preincubated with a Tris–HCl buffer (50 mM) at room temperature for 20 min followed by incubation with [^11C]-PF-04822163 (168 Bq/mL). […] The radioactivity values were normalized as a percentage of the radioactivity relative to the control.

[5] = test system: 65 major CNS targets, including ion channels, transporters, and GPCR enzymes; experiment: Off-target binding screen against 65 major CNS targets (NIMH PDSP); settings: 10 μM testing concentration; except 5-HT2B and 5-HT6
Excerpt: as §1, §2, §3, §4

PDE1C = PDE1C (Homo sapiens, UniProt Q14123); experiment: PDE1C inhibition; format: biochemical
PDE1C, sequence (Q14123 whole entry, species assumed): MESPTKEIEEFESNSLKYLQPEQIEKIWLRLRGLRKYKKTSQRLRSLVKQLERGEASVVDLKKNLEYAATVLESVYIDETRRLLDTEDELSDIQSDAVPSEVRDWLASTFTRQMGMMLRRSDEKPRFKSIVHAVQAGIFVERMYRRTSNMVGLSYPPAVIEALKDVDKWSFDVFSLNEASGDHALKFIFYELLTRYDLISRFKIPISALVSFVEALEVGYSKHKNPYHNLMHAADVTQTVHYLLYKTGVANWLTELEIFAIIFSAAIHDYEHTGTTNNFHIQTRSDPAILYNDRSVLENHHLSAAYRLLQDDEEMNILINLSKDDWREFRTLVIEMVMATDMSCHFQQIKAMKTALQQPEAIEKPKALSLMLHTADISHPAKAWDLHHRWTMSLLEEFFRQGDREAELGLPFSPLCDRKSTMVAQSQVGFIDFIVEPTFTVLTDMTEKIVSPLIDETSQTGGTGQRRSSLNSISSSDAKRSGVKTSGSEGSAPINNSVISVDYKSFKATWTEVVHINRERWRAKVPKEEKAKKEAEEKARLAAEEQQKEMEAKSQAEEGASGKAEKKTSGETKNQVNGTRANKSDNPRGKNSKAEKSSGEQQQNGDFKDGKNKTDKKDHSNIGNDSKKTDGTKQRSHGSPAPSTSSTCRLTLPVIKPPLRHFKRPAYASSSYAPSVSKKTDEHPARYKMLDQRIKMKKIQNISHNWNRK

PDE1A = PDE1A (Homo sapiens, UniProt P54750); experiment: PDE1A inhibition; format: biochemical
PDE1A, sequence (P54750 whole entry, species assumed): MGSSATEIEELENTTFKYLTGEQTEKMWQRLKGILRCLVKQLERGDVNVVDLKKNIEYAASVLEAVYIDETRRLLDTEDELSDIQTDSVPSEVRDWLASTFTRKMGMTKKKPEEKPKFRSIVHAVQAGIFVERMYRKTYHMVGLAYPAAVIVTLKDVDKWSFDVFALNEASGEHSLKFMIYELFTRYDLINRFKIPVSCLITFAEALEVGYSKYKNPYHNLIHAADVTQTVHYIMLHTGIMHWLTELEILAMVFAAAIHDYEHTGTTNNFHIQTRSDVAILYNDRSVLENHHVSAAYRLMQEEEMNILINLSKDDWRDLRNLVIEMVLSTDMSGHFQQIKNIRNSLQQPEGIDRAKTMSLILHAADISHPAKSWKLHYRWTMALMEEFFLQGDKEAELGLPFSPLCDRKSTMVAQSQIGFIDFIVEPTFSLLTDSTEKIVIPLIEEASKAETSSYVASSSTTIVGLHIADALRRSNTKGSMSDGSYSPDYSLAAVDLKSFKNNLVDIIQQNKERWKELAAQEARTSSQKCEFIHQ

[6] = Log D by shake flask method (n-octanol/PBS); format: physicochemical; settings: measured with [11C]PF-04822163
Experimental: as §1
The measurement of log D was performed as previously reported. In brief, [^11C]-PF-04822163, n-octanol (3 mL), and PBS (1×, 3 mL) were added to a centrifuge tube, and vortexing was conducted for 3 min followed by centrifugation (∼14,000 rpm) for 5 min. PBS (around 500 μL) and n-octanol (around 50 μL) were then weighted and measured by a gamma counter.

PDE10A = PDE10A (Homo sapiens, UniProt Q9Y233); experiment: Potency toward other PDEs (PDE10A); format: biochemical
PDE10A, sequence (Q9Y233 whole entry, species assumed): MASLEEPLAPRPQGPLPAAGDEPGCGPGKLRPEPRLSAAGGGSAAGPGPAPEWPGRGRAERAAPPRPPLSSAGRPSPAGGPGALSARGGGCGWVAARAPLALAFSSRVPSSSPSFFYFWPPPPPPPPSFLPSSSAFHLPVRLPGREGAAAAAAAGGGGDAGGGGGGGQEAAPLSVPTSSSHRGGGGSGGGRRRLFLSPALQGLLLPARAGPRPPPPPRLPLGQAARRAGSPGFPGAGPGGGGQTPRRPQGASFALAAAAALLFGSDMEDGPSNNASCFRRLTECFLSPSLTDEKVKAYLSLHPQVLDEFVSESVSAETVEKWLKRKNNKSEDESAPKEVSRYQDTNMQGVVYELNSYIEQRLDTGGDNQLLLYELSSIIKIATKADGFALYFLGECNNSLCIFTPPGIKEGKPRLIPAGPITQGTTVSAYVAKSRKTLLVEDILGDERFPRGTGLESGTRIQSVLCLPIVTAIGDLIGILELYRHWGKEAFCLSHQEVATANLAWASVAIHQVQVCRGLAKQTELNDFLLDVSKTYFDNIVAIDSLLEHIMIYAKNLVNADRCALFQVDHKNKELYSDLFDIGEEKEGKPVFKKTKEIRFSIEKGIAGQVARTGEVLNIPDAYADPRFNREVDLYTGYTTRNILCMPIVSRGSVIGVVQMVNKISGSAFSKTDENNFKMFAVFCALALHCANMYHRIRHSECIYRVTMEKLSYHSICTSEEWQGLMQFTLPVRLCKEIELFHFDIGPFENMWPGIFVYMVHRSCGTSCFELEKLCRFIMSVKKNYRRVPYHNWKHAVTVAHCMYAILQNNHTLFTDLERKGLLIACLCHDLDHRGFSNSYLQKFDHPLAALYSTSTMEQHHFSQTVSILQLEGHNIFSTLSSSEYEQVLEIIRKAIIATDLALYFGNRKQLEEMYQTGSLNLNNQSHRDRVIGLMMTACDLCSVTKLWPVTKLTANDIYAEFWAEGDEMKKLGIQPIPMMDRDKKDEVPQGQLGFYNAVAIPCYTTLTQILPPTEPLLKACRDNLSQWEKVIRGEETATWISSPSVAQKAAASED

PDE1B [7] = biological target: T3, PDE1B; experiment: PDE1B inhibition; format: biochemical
[8] = Radiometabolic analysis in rat brain and plasma; format: in vivo, SD rats; settings: 15 min postadministration
Experimental: To gain insight into the in vivo stability of [^11C]-PF-04822163, we performed radiometabolic analysis in the brain and plasma of SD rats (Figure ). At 15 min postadministration of [^11C]-PF-04822163, 95% of [^11C]-PF-04822163 remained unchanged in the brain, while in plasma, 26% remained unchanged.
The radiometabolic analysis was performed following a previous report. After the intravenous injection of [^11C]-PF-04822163, SD rats were sacrificed at 15 min postinjection. Plasma samples were quenched with acetonitrile and centrifuged, and the supernatant was assessed by radio-HPLC. The brain was collected and homogenized and quenched with acetonitrile, and the resulting homogenate was centrifuged. The supernatant was analyzed by radio-HPLC.

[9] = Whole-body biodistribution study in mice; format: in vivo, ddY mice
Experimental: To investigate the distribution of [^11C]-PF-04822163 in the whole body, we conducted a biodistribution study in ddY mice (Figure ). The radioactivity levels in major organs were assessed at 1, 5, 15, 30, and 60 min after the administration of [^11C]-PF-04822163. […] After the initial uptake, radioactivity accumulations decreased in almost all organs, while the uptake in the small intestine increased, and liver uptake remained at a high level (5% ID/g at 60 min), indicating a hepatobiliary elimination route.
The biodistribution experiment was performed according to previous reports. , In brief, [^11C]-PF-04822163 (4.44 MBq/0.1 mL) was injected (i.v.) into ddY mice via the tail vein. After the administration of [^11C]-PF-04822163, the mice were sacrificed at different time points (1, 5, 15, 30, and 60 min), and tissues of interest were collected. The tissues were weighted and measured by a gamma counter.

SMILES: CN1C(=O)c2c(nn(Cc3ccc(-c4cccc(F)n4)cc3)c2Nc2ccccc2)N2C1=N[C@@H]1CCC[C@@H]12 [ITI-214]
selectivity over other PDEs (PDE1 [1]; PDE1 over other PDEs, ref Li et al., 2016): > 1000 fold | IC50 (PDE1 [1]; ref Li et al., 2016): 5.8e-05 µM

Ki (5-HT6): 4.86 µM | Ki (5-HT2B): 262 nM | melting point: 122 to 124 °C | off-target binding (>50% inhibition) [5]: no significant off-target binding | IC50 (PDE1C): 7 nM | selectivity over other PDEs for PDE1C (PDE1C): 36 fold | IC50 (PDE1A): 2 nM | selectivity over other PDEs for PDE1A (PDE1A): 126 fold | logD [6]: 2.53 | IC50 (PDE10A): 252 nM | IC50 (PDE1B [7]): 2.4 nM | selectivity over other PDEs for PDE1B (PDE1B [7]): 105 fold
SMILES: COc1ccc2c([C@H]3CCc4ccc(Cl)cc43)ncnc2c1OC [PF-04822163, (S)-4-(6-Chloro-2,3-dihydro-1H-inden-1-yl)-7,8-dimethoxyquinazoline]
reduction in uptake (AUC) in different brain regions (PDE1 [2]; pretreatment with unlabeled blocker 1 mg/kg, 10 min before [11C]PF-04822163, AUC 0–20 min): 7–12% | selectivity over other PDEs (PDE1B [3]): > 100 fold | decrease in radioactivity signal in PDE1B-rich regions (PDE1B [4]): 47–71%

remained unchanged in the brain ([8]; rat brain): 95% | remained unchanged in plasma ([8]; rat plasma): 26% | SUVmax (PDE1 [2]; striatum, 3 min post-tracer administration, baseline): 2.0 | uptake ([9]; at 1 and 5 min, heart, lung, liver, kidney, adrenal, and brain): ≥ 3 % ID/g | liver uptake ([9]; at 60 min): 5 % ID/g
SMILES: COc1c(O[11CH3])ccc2c([C@H]3CCc4ccc(Cl)cc43)ncnc12 [[^11C]PF-04822163]

SMILES: CCOC(=O)C1=C[C@]2(CC)CCCN3CCc4c(n1c1ccccc41)[C@@H]32 [Vinpocetine]
IC50 (PDE1 [1]): 30 µM
